In brackets after ≈: the same amount, converted by molar mass.
Tests used:
Experiment in all cases: in vitro antibacterial activity (MIC), conventional agar dilution
Type in all cases: cell-based
[1] = tested on: Acinetobacter sp CMX 669; conditions: CMX669, brain-heart infusion agar, inoculum 10^4 /plate
Method: (§1) The in vitro antibacterial activity is determined by conventional agar dilution procedures. A brain-heart infusion agar medium containing the drug is inoculated with a microbial culture cultivated on a brain-infusion broth (Difco 0037-01-6) at 36° C. for 18 hours and then observes for growth of the microorganism. The minimum concentration at which growth of the microorganism is inhibited is taken as MIC (ug/ml). The inoculum size is 10^4 /plate.

[2] = tested on: Strep. Pyogenes EES61; conditions: Streptococcus pyogenes, brain-heart infusion agar, inoculum 10^4 /plate
Method: as §1

[3] = tested on: Ent. aerogenes ATCC 13048; conditions: Klebsiella aerogenes, ATCC13048, brain-heart infusion agar, inoculum 10^4 /plate
Method: as §1

[4] = tested on: P. aeruginosa A5007; conditions: Pseudomonas aeruginosa, brain-heart infusion agar, inoculum 10^4 /plate
Method: as §1

[5] = tested on: P. stuartii CMX 640; conditions: Providencia stuartii, CMX640, brain-heart infusion agar, inoculum 10^4 /plate
Method: as §1

[6] = tested on: Stap. aureus ATCC-6538p; conditions: Staphylococcus aureus, ATCC6538P, brain-heart infusion agar, inoculum 10^4 /plate
Method: as §1

[7] = tested on: Stap. epidermis 3519; conditions: brain-heart infusion agar, inoculum 10^4 /plate
Method: as §1

[8] = tested on: K. pneumoniae ATCC 8045; conditions: Klebsiella pneumoniae, ATCC8045, brain-heart infusion agar, inoculum 10^4 /plate
Method: as §1

[9] = tested on: Ent. faecium ATCC 8043; conditions: Enterococcus faecium, ATCC8043, brain-heart infusion agar, inoculum 10^4 /plate
Method: as §1

[10] = tested on: E. coli Juhl; conditions: Escherichia coli, brain-heart infusion agar, inoculum 10^4 /plate
Method: as §1

Compound	MIC [1]	MIC [2]	MIC [3]	MIC [4]	MIC [5]	MIC [6]	MIC [7]	MIC [8]	MIC [9]	MIC [10]
O=c1[nH]sc2c1c(=O)c1cc(F)c(N3CCC(O)C3)cc1n2C1CC1 (centres unmarked) [46(ss), 9-cyclopropyl-6-fluoro-7-(3-hydroxy-1-pyrrolidinyl)-2,3,4,9-tetrahydroisothiazolo[5,4-b]quinoline-3,4-dione]	0.02 µg/mL (≈ 0.0553 µM)	0.39 µg/mL (≈ 1.08 µM)	0.05 µg/mL (≈ 0.138 µM)	0.39 µg/mL (≈ 1.08 µM)	0.78 µg/mL (≈ 2.16 µM)	0.005 µg/mL (≈ 0.0138 µM)	0.01 µg/mL (≈ 0.0277 µM)	≤ 0.005 µg/mL	0.2 µg/mL (≈ 0.553 µM)	0.02 µg/mL (≈ 0.0553 µM)
CCn1c2s[nH]c(=O)c2c(=O)c2cc(F)c(N3CCNCC3)c(F)c21 [46(dd), 9-ethyl-6,8-difluoro-7-(piperazinyl)-2,3,4,9-tetrahydroisothiazolo[5,4-b]quinoline-3,4-dione]	0.2 µg/mL (≈ 0.546 µM)	0.39 µg/mL (≈ 1.06 µM)	0.05 µg/mL (≈ 0.136 µM)	0.78 µg/mL (≈ 2.13 µM)	0.78 µg/mL (≈ 2.13 µM)	0.05 µg/mL (≈ 0.136 µM)	0.05 µg/mL (≈ 0.136 µM)	0.05 µg/mL (≈ 0.136 µM)	0.2 µg/mL (≈ 0.546 µM)	0.05 µg/mL (≈ 0.136 µM)
CC1CN(c2cc3c(cc2F)c(=O)c2c(=O)[nH]sc2n3-c2ccc(F)cc2F)CC1N (centres unmarked) [46(g), 9-o,p-difluorophenyl-6-fluoro-7-(3-amino-4-methyl-1-pyrrolidinyl)-2,3,4,9-tetrahydroisothiazolo[5,4-b]quinoline-3,4-dione]	0.1 µg/mL (≈ 0.224 µM)	0.78 µg/mL (≈ 1.75 µM)	0.1 µg/mL (≈ 0.224 µM)	0.78 µg/mL (≈ 1.75 µM)	0.39 µg/mL (≈ 0.874 µM)	0.05 µg/mL (≈ 0.112 µM)	0.1 µg/mL (≈ 0.224 µM)	0.1 µg/mL (≈ 0.224 µM)	0.2 µg/mL (≈ 0.448 µM)	0.05 µg/mL (≈ 0.112 µM)
CCn1c2cc(N3CCNCC3)c(F)cc2c(=O)c2c(=O)[nH]sc21 [46(m), 9-ethyl-6-fluoro-7-(1-piperazinyl)-2,3,4,9-tetrhydroisothiazolo[5,4-b]quinoline-3,4-dione]	0.39 µg/mL (≈ 1.12 µM)	0.2 µg/mL (≈ 0.574 µM)	0.2 µg/mL (≈ 0.574 µM)	0.2 µg/mL (≈ 0.574 µM)	0.39 µg/mL (≈ 1.12 µM)	0.1 µg/mL (≈ 0.287 µM)	0.2 µg/mL (≈ 0.574 µM)	0.05 µg/mL (≈ 0.144 µM)	0.39 µg/mL (≈ 1.12 µM)	0.1 µg/mL (≈ 0.287 µM)
O=c1[nH]sc2c1c(=O)c1cc(F)c(N3CCNCC3)cc1n2C1CC1 [46(zz), 9-cyclopropyl-6-fluoro-7-(1-piperazinyl)-2,3,4,9-tetrahydroisothiazolo[5,4-b]quinoline-3,4-dione]	0.05 µg/mL (≈ 0.139 µM)	0.05 µg/mL (≈ 0.139 µM)	0.01 µg/mL (≈ 0.0277 µM)	0.05 µg/mL (≈ 0.139 µM)	0.2 µg/mL (≈ 0.555 µM)	0.02 µg/mL (≈ 0.0555 µM)	0.05 µg/mL (≈ 0.139 µM)	0.005 µg/mL (≈ 0.0139 µM)	0.1 µg/mL (≈ 0.277 µM)	0.005 µg/mL (≈ 0.0139 µM)
CCn1c2s[nH]c(=O)c2c(=O)c2cc(F)c(N3CCNC(C)C3)c(F)c21 (centres unmarked) [46(xx), 9-ethyl-6,8-difluoro-7-(3-methyl-1-piperazinyl)-2,3,4,9-tetrahydroisothiazolo[5,4-b]quinoline-3,4-dione]	0.1 µg/mL (≈ 0.263 µM)	0.39 µg/mL (≈ 1.03 µM)	0.1 µg/mL (≈ 0.263 µM)	1.56 µg/mL (≈ 4.1 µM)	3.1 µg/mL (≈ 8.15 µM)	0.1 µg/mL (≈ 0.263 µM)	0.2 µg/mL (≈ 0.526 µM)	0.005 µg/mL (≈ 0.0131 µM)	0.78 µg/mL (≈ 2.05 µM)	0.05 µg/mL (≈ 0.131 µM)
Cl.NC1CCN(c2cc3c(cc2F)c(=O)c2c(=O)[nH]sc2n3C2CC2)C1 (centres unmarked) [47(b), 9-cyclopropyl-6-fluoro-7-(3-amino-1-pyrrolidinyl)-2,3,4,9-tetrahydroisothiazolo[5,4-b]quinoline-3,4-dione hydrochloride]	0.05 µg/mL	0.05 µg/mL	0.01 µg/mL	0.2 µg/mL	0.39 µg/mL	0.02 µg/mL	0.05 µg/mL	0.005 µg/mL	0.1 µg/mL	0.05 µg/mL
CCn1c2cc(N3CCCC3)c(F)cc2c(=O)c2c(=O)[nH]sc21 [46(bbb), 9-ethyl-6-fluoro-7-(1-pyrrolidinyl)-2,3,4,9-tetrahydroisothiazolo[5,4-b]quinoline-3,4-dione]	0.2 µg/mL (≈ 0.6 µM)	1.56 µg/mL (≈ 4.68 µM)	0.2 µg/mL (≈ 0.6 µM)	0.2 µg/mL (≈ 0.6 µM)	> 100 µg/mL	0.01 µg/mL (≈ 0.03 µM)	0.02 µg/mL (≈ 0.06 µM)	0.05 µg/mL (≈ 0.15 µM)	0.2 µg/mL (≈ 0.6 µM)	0.05 µg/mL (≈ 0.15 µM)
CCn1c2cc(N3CCN(C)CC3)c(F)cc2c(=O)c2c(=O)[nH]sc21 [46(l), 9-ethyl-6-fluoro-7-(4-methyl-1-piperazinyl)-2,3,4,9-tetrahydroisothiazolo[5,4-b]quinoline-3,4-dione]	0.05 µg/mL (≈ 0.138 µM)	0.39 µg/mL (≈ 1.08 µM)	0.1 µg/mL (≈ 0.276 µM)	0.39 µg/mL (≈ 1.08 µM)	1.56 µg/mL (≈ 4.3 µM)	0.05 µg/mL (≈ 0.138 µM)	0.1 µg/mL (≈ 0.276 µM)	0.05 µg/mL (≈ 0.138 µM)	0.2 µg/mL (≈ 0.552 µM)	0.05 µg/mL (≈ 0.138 µM)
CN1CCN(c2cc3c(cc2F)c(=O)c2c(=O)[nH]sc2n3-c2ccc(F)cc2)CC1 [46(a), 9-p-fluorophenyl-6-fluoro-7-(4-methyl-1-piperazinyl)-2,3,4,9-tetrahydroisothiazolo[5,4-b]quinoline-3,4-dione]	0.2 µg/mL (≈ 0.467 µM)	1.56 µg/mL (≈ 3.64 µM)	0.39 µg/mL (≈ 0.91 µM)	1.56 µg/mL (≈ 3.64 µM)	12.5 µg/mL (≈ 29.2 µM)	0.01 µg/mL (≈ 0.0233 µM)	0.2 µg/mL (≈ 0.467 µM)	0.1 µg/mL (≈ 0.233 µM)	1.56 µg/mL (≈ 3.64 µM)	0.2 µg/mL (≈ 0.467 µM)
O=c1[nH]sc2c1c(=O)c1cc(F)c(N3CCNCC3)cc1n2-c1ccc(F)cc1 [46(yy), 9-p-fluorophenyl-6-fluoro-7-(1-piperozinyl)-2,3,4,9-tetrahydroisothiazolo[5,4-b]quinoline-3,4-dione]	0.2 µg/mL (≈ 0.483 µM)	0.78 µg/mL (≈ 1.88 µM)	0.1 µg/mL (≈ 0.241 µM)	0.78 µg/mL (≈ 1.88 µM)	3.1 µg/mL (≈ 7.48 µM)	0.1 µg/mL (≈ 0.241 µM)	0.2 µg/mL (≈ 0.483 µM)	0.02 µg/mL (≈ 0.0483 µM)	0.78 µg/mL (≈ 1.88 µM)	0.05 µg/mL (≈ 0.121 µM)
CCn1c2s[nH]c(=O)c2c(=O)c2cc(F)c(N3CCC(N)C3)c(F)c21 (centres unmarked) [47(g), 9-ethyl-6,8-difluoro-7-(3-amino-1-pyrrolidinyl)-2,3,4,9-tetrahydroisothiazolo[5,4-b]quinoline-3,4-dione]	0.1 µg/mL (≈ 0.273 µM)	0.78 µg/mL (≈ 2.13 µM)	0.02 µg/mL (≈ 0.0546 µM)	0.78 µg/mL (≈ 2.13 µM)	0.78 µg/mL (≈ 2.13 µM)	0.05 µg/mL (≈ 0.136 µM)	0.1 µg/mL (≈ 0.273 µM)	0.01 µg/mL (≈ 0.0273 µM)	0.2 µg/mL (≈ 0.546 µM)	0.01 µg/mL (≈ 0.0273 µM)
CCn1c2cc(N3CCNC(C)C3)c(F)cc2c(=O)c2c(=O)[nH]sc21 (centres unmarked) [46(ww), 9-ethyl-6-fluoro-7-(3-methyl-1-piperazinyl)-2,3,4,9-tetrahydroisothiazolo[5,4-b]quinoline-3,4-dione]	0.2 µg/mL (≈ 0.552 µM)	0.78 µg/mL (≈ 2.15 µM)	0.1 µg/mL (≈ 0.276 µM)	0.39 µg/mL (≈ 1.08 µM)	1.56 µg/mL (≈ 4.3 µM)	0.05 µg/mL (≈ 0.138 µM)	0.1 µg/mL (≈ 0.276 µM)	0.2 µg/mL (≈ 0.552 µM)	0.78 µg/mL (≈ 2.15 µM)	0.1 µg/mL (≈ 0.276 µM)
CC1CN(c2cc3c(cc2F)c(=O)c2c(=O)[nH]sc2n3-c2ccc(F)cc2)CCN1 (centres unmarked) [46(b), 9-p-fluorophenyl-6-fluoro-7-(3-methyl-1-piperazinyl)-2,3,4,9-tetrahydroisothiazolo[5,4-b]quinoline-3,4-dione]	0.1 µg/mL (≈ 0.233 µM)	0.78 µg/mL (≈ 1.82 µM)	0.02 µg/mL (≈ 0.0467 µM)	1.56 µg/mL (≈ 3.64 µM)	6.2 µg/mL (≈ 14.5 µM)	0.01 µg/mL (≈ 0.0233 µM)	0.2 µg/mL (≈ 0.467 µM)	0.01 µg/mL (≈ 0.0233 µM)	0.78 µg/mL (≈ 1.82 µM)	0.05 µg/mL (≈ 0.117 µM)
